Results taken from patent US10857180B2, “Pharmaceutical composition for improving health, cure abnormalities and degenerative disease, achieve anti-aging effect of therapy and therapeutic effect on mammals and method thereof” (priority 2014, dated 2020).
Several values for one entry are separate records, joined by “and”; a condition that tells them apart may be missing. Equal entries are not always repeated. Marks after values point to notes of the source that are not given here.

Legend:
mouse L1210 leukemia = assay: Mouse L1210 leukemia model; type: in vivo
Procedure: The efficacy of the ^64Zne aspartate composition with respect to growth and metastatic activity of the experimental tumor (strain of mouse L1210 leukemia) was assessed in the experiment. […] To inoculate the strain, tumor cells derived from ascitic fluid were placed in normal saline solution, the cellularity of suspension was determined using a hemocytometer and adjusted to a concentration of 1×10^6 cells/ml with saline solution. The tumor was transplanted by injecting 250 μl of the tumor cell suspension (0.25×10^6 cells/mouse) into abdominal cavities of the animals. 80 male BDFi mice at the age of 8-10 weeks, weighing 18-22 g were used in the experiment.
In the experiment, 0.25×10^6 cells of mouse L1210 leukemia in 0.3 ml of saline solution were injected in the peritoneal cavities of the BDFi mice. The agent according to the invention was dissolved in deuterium-depleted water (deuterium-depleted water Langvey) and given to the experimental animals from the first day after the inoculation of the tumor cells. The solution composition comprising ^64Zne aspartate and deuterium-depleted water was injected intraperitoneally using a microinjection syringe at doses of 25 μg/mouse, 50 μg/mouse and 75 pig/mouse every other day (7 times during 14 days) in a volume of 0.5 ml/mouse. The said agent was also injected intravenously at a dose of 25 μg/mouse every other day (7 times during 14 days) in a volume of 0.2 ml/mouse. […] At day 8, 13 and 18 after inoculation of tumor cells, the whole ascites fluid was recovered from the animals and the total number of live/dead cells in each mouse was determined. Some mice were also used to evaluate their average life span in the experiment.
Clinical observations were carried out as described in Example 7. The animals were divided into groups as follows (16 mice per group): • 1. Group No 1: control group, L1210+solvent (deuterium-depleted water); • 2. Group No 2: L1210+^64Zne aspartate administered i.v. at a dose of 25 μg/mouse; • 3. Group No 3: L1210+^64Zne aspartate administered i.p. at a dose of 25 μg/mouse; • 4. Group No 4: L1210+^64Zne aspartate administered i.p. at a dose of 50 μg/mouse; • 5. Group No 5: L1210+^64Zne aspartate administered i.p. at a dose of 75 μg/mouse.
^64Zne aspartate was diluted in deuterium-depleted water and injected, starting from the first day of the tumor transplantation, 7 times every other day during 14 days in a volume of 0.5 ml/mouse using an i.p. route of administration and in a volume of 0.2 ml/mouse using an i.v. route of administration. The animals of the control group received intraperitoneal injections with 0.5 ml/mouse of deuterium-depleted water.
The dynamics of formation of ascites in the control and experimental groups was assessed visually using a 10-point scale (one point was 0.5 cm of the mean diameter of the mouse abdomen filled with ascites).
In addition, at 8, 13 and 18 days after the mice were inoculated with the tumor cells, all ascitic fluid was removed from the abdomens in all animals from each group by washing their peritoneal cavities with saline solution and live and dead tumor cells were counted using the traditional vital dye trypan blue (HyClon, USA) and a hemocytometer.
The number of cells was determined using the following formula: X=((a)/80)×10^6, where X is the number of cells in 1 ml and a is the number of cells counted in 80 small squares of the hemocytometer.
50% of the mice in each group were used to assess their average length of survival in the experiment. The percentage change in the lifespan of the experimental animals was calculated using the following formula: (c−d)/[…]×100, where: c is the average lifespan in the experimental group and d is the average lifespan in the control group. The total time of observation of the lifespan of the experimental animals was 60 days after the tumor inoculation.

[1] = tested on: human melanoma tumor cells (MM-4 cell line); assay: Scratch assay, MM-4 cells; type: cell-based; details: ^64Zn 15 mcg/ml; 48 hours in control
Procedure: The cells of A-549, A-431, NRK, HaCaT, MM-4, normal fibroblasts (derived from the Bank of Cell Lines from human and animal tissues, R. E. Kavetsky Institute of Experimental Pathology, Oncology and Radiobiology, National Academy of Sciences of Ukraine) were cultured in complete culture medium RPMI 1640/DMEM (PAA, Austria) (depending on the cell type) supplemented with 10% fetal calf serum (PAA, Austria) and incubated in 5% CO2 humidified atmosphere at 37° C. The culture medium was replaced in 2 to 3 days and the cells were passaged in 4 to 5 days.
Analysis of the influence of the components under study on the cell migration rate was performed using the scratch assay method. […]
The plate was incubated in a CO2 incubator for additional 48 hours. After the cells formed a dense monolayer it was damaged (by making a “scratch”) and the growth medium was replaced to remove cell debris and smooth the edges of the “scratch.” The rate of cell migration was analyzed using an inverted microscope and by photographing cells in the area of injury. The migration activity of cells was fixed at several time points (depending on the cell line analyzed). The microphotomicrographs were analyzed and the cell incubation time needed to restore the monolayer was determined for all experimental groups. […]

Compound: NC(CC(=O)[O-])C(=O)[O-].[64Zn+2] (racemic) [^64Zne aspartate, ^64Zn aspartate (racemic)]
- decrease in the number of live cells in the peritoneal cavities (mouse L1210 leukemia; 50 μg/mouse or 75 μg/mouse, after 3 injections): 100%
- Number of live cells/mouse (M ± m) (mouse L1210 leukemia; day 8, i.p. 25 μg/mouse): 335.8 × 10^6
- Percentage of dead tumor cells in ascites fluid (mouse L1210 leukemia; day 8, i.p. 25 μg/mouse): below 2%
- Volume of ascites (M ± m) (mouse L1210 leukemia; day 8, i.p. 25 μg/mouse): 0.8 ± 0.8 ml/mouse
- number of cells in the ascites of the one mouse with tumor cells (mouse L1210 leukemia; day 8, i.p. 25 μg/mouse, 1 of 2 mice): indicators (671. 6 × 10^6). No
- Number of live cells/mouse (M ± m) (mouse L1210 leukemia; day 8, i.p. 50 μg/mouse): 0**
- Percentage of dead tumor cells in ascites fluid (mouse L1210 leukemia; day 8, i.p. 50 μg/mouse): 0%
- Volume of ascites (M ± m) (mouse L1210 leukemia; day 8, i.p. 50 μg/mouse): 0* ml/mouse
- Number of live cells/mouse (M ± m) (mouse L1210 leukemia; day 8, i.p. 75 μg/mouse): 0**
- Percentage of dead tumor cells in ascites fluid (mouse L1210 leukemia; day 8, i.p. 75 μg/mouse): 0%
- Volume of ascites (M ± m) (mouse L1210 leukemia; day 8, i.p. 75 μg/mouse): 0* ml/mouse
- Number of live cells/mouse (M ± m) (mouse L1210 leukemia; day 8, i.v. 25 μg/mouse): 902 × 10^6
- Percentage of dead tumor cells in ascites fluid (mouse L1210 leukemia; day 8, i.v. 25 μg/mouse): below 2%
- Volume of ascites (M ± m) (mouse L1210 leukemia; day 8, i.v. 25 μg/mouse): 1.2 ± 0.3 ml/mouse
- Number of live cells/mouse (M ± m) (mouse L1210 leukemia; day 13, i.p. 25 μg/mouse): 532.7 × 10^6
- Percentage of dead tumor cells in ascites fluid (mouse L1210 leukemia; day 13, i.p. 25 μg/mouse): below 3%
- Volume of ascites (M ± m) (mouse L1210 leukemia; day 13, i.p. 25 μg/mouse): 1.9 ± 1.5 ml/mouse
- Number of live cells/mouse (M ± m) (mouse L1210 leukemia; day 13, i.p. 50 μg/mouse): 0**
- Percentage of dead tumor cells in ascites fluid (mouse L1210 leukemia; day 13, i.p. 50 μg/mouse): 0%
- Volume of ascites (M ± m) (mouse L1210 leukemia; day 13, i.p. 50 μg/mouse): 0* ml/mouse
- Number of live cells/mouse (M ± m) (mouse L1210 leukemia; day 13, i.p. 75 μg/mouse): 0**
- Percentage of dead tumor cells in ascites fluid (mouse L1210 leukemia; day 13, i.p. 75 μg/mouse): 0%
- Volume of ascites (M ± m) (mouse L1210 leukemia; day 13, i.p. 75 μg/mouse): 0* ml/mouse
- Number of live cells/mouse (M ± m) (mouse L1210 leukemia; day 13, i.v. 25 μg/mouse): 1322 × 10^6
- Percentage of dead tumor cells in ascites fluid (mouse L1210 leukemia; day 13, i.v. 25 μg/mouse): below 3%
- Volume of ascites (M ± m) (mouse L1210 leukemia; day 13, i.v. 25 μg/mouse): 6 ± 1.5 ml/mouse
- amount of ascites less than control (mouse L1210 leukemia; day 15, 50 μg): 87%
- amount of ascites less than control (mouse L1210 leukemia; day 15, 75 μg): 90%
- amount of ascites less than control (mouse L1210 leukemia; day 15, i.p. 25 μg/mouse): 60%
- Average lifespan of animals (M ± m) (mouse L1210 leukemia; i.p. 25 μg/mouse): 28.1 ± 4.7 days
- Increase in the lifespan of experimental animals (mouse L1210 leukemia; i.p. 25 μg/mouse): 41.3%
- Number of animals in the group with tumor (mouse L1210 leukemia; i.p. 25 μg/mouse): 11 pc
- Number of animals in the group without tumor (mouse L1210 leukemia; i.p. 25 μg/mouse): 5 pc
- Tumor-free animals (mouse L1210 leukemia; i.p. 25 μg/mouse x7): 31.2%
- Volume of ascites in mice (mouse L1210 leukemia; i.p. 25 μg/mouse x7, day 8): 0.6 ± 0.3 points
- Volume of ascites in mice (mouse L1210 leukemia; i.p. 25 μg/mouse, day 10): 1.1 ± 0.5 points
- Volume of ascites in mice (mouse L1210 leukemia; i.p. 25 μg/mouse, day 13): 2.5± 0.6 points
- Volume of ascites in mice (mouse L1210 leukemia; i.p. 25 μg/mouse, day 15): 4.1 points and 4.1 ± 1.1 points
- Volume of ascites in mice (mouse L1210 leukemia; i.p. 25 μg/mouse, day 18): 4.8 ± 1.4 points
- Volume of ascites in mice (mouse L1210 leukemia; i.p. 25 μg/mouse, day 20): 4.6 ± 1.8 points
- Volume of ascites in mice (mouse L1210 leukemia; i.p. 25 μg/mouse, day 22): 3.5 ± 2.2 points
- Volume of ascites in mice (mouse L1210 leukemia; i.p. 25 μg/mouse, day 26): 2.5 ± 2.5 points
- Volume of ascites in mice (mouse L1210 leukemia; i.p. 25 μg/mouse, day 28): 0 points
- Average lifespan of animals (M ± m) (mouse L1210 leukemia; i.p. 50 μg/mouse): 41.6 ± 8.7 days
- Increase in the lifespan of experimental animals (mouse L1210 leukemia; i.p. 50 μg/mouse): 60.3%
- Number of animals in the group with tumor (mouse L1210 leukemia; i.p. 50 μg/mouse): 5 pc
- Number of animals in the group without tumor (mouse L1210 leukemia; i.p. 50 μg/mouse): 11 pc
- Tumor-free animals (mouse L1210 leukemia; i.p. 50 μg/mouse x7): 68.8%
- Volume of ascites in mice (mouse L1210 leukemia; i.p. 50 μg/mouse x7, day 8): 0* points
- Volume of ascites in mice (mouse L1210 leukemia; i.p. 50 μg/mouse, day 10): 0* points
- Volume of ascites in mice (mouse L1210 leukemia; i.p. 50 μg/mouse, day 13): 0.4 ± 0.2 points
- Volume of ascites in mice (mouse L1210 leukemia; i.p. 50 μg/mouse, day 15): 1.3 ± 0.7 points
- Volume of ascites in mice (mouse L1210 leukemia; i.p. 50 μg/mouse, day 15, listed as 64Zn aspartate): 1.3 points
- Volume of ascites in mice (mouse L1210 leukemia; i.p. 50 μg/mouse, day 18): 1.1 ± 1.1 points
- Volume of ascites in mice (mouse L1210 leukemia; i.p. 50 μg/mouse, day 20): 0 points
- Volume of ascites in mice (mouse L1210 leukemia; i.p. 50 μg/mouse, day 22): 0 points
- Volume of ascites in mice (mouse L1210 leukemia; i.p. 50 μg/mouse, day 26): 0 points
- Volume of ascites in mice (mouse L1210 leukemia; i.p. 50 μg/mouse, day 28): 0 points
- Average lifespan of animals (M ± m) (mouse L1210 leukemia; i.p. 75 μg/mouse): 55 ± 5 days
- Increase in the lifespan of experimental animals (mouse L1210 leukemia; i.p. 75 μg/mouse): 70%
- Number of animals in the group with tumor (mouse L1210 leukemia; i.p. 75 μg/mouse): 1 pc
- Number of animals in the group without tumor (mouse L1210 leukemia; i.p. 75 μg/mouse): 15 pc
- Tumor-free animals (mouse L1210 leukemia; i.p. 75 μg/mouse x7): 93.8%
- Volume of ascites in mice (mouse L1210 leukemia; i.p. 75 μg/mouse x7, day 8): 0* points
- Volume of ascites in mice (mouse L1210 leukemia; i.p. 75 μg/mouse, day 10): 0* points
- Volume of ascites in mice (mouse L1210 leukemia; i.p. 75 μg/mouse, day 13): 0.4 ± 0.4 points
- Volume of ascites in mice (mouse L1210 leukemia; i.p. 75 μg/mouse, day 15): 1 ± 1 points
- Volume of ascites in mice (mouse L1210 leukemia; i.p. 75 μg/mouse, day 15, listed as 64Zn aspartate): 1 points
- Volume of ascites in mice (mouse L1210 leukemia; i.p. 75 μg/mouse, day 18): 1.1 ± 1.1 points
- Volume of ascites in mice (mouse L1210 leukemia; i.p. 75 μg/mouse, day 20): 0 points
- Volume of ascites in mice (mouse L1210 leukemia; i.p. 75 μg/mouse, day 22): 0 points
- Volume of ascites in mice (mouse L1210 leukemia; i.p. 75 μg/mouse, day 26): 0 points
- Volume of ascites in mice (mouse L1210 leukemia; i.p. 75 μg/mouse, day 28): 0 points
- Increase in the lifespan of experimental animals (mouse L1210 leukemia; i.v. 25 μg/mouse): 2.4%
- Number of animals in the group without tumor (mouse L1210 leukemia; i.v. 25 μg/mouse): 0 pc
- Tumor-free animals (mouse L1210 leukemia; i.v. 25 μg/mouse): 0%
- Volume of ascites in mice (mouse L1210 leukemia; i.v. 25 μg/mouse x7, day 8): 3.3 ± 0.3 points
- Number of animals in the group with tumor (mouse L1210 leukemia; i.v. 25 μg/mouse, 16 mice per group): 16 pc
- Average lifespan of animals (M ± m) (mouse L1210 leukemia; i.v. 25 μg/mouse, 60 days observation): 16.9 ± 1.3 days
- Volume of ascites in mice (mouse L1210 leukemia; i.v. 25 μg/mouse, day 10): 4.7 ± 0.4 points
- Volume of ascites in mice (mouse L1210 leukemia; i.v. 25 μg/mouse, day 13): 7.7 ± 0.4 points
- Volume of ascites in mice (mouse L1210 leukemia; i.v. 25 μg/mouse, day 15): 9.7 ± 0.3 points
- Volume of ascites in mice (mouse L1210 leukemia; i.v. 25 μg/mouse, day 18): 8 ± 0.9 points
- Volume of ascites in mice (mouse L1210 leukemia; i.v. 25 μg/mouse, day 20): 10 points
- percentage of dead tumor cells in the ascites treated with the agent (mouse L1210 leukemia; mouse, in vivo): ≤ 5%
- effect on the growth of mouse leukemia L1210 cells (mouse L1210 leukemia; series of intravenous injections): no effect

Compound: O=S(=O)([O-])[O-].[64Zn+2] [^64Zn]
- time of the gap closing [1]: 72 h
